US20250340743A1, “Polyetheramine-Based Multifunctional Booster” (Troy Technology II, Inc., priority 2022, published 2025)
Where two headings read alike, the source gives them in different places.

System: Pseudomonas aeruginosa (ATCC #10145)
Experiment: MIC via microbroth dilution
Assay type: cell-based
Method: To examine the preservative boosting potential of these dispersions, minimum inhibitory concentration (MIC) testing was performed. MICs were determined via microbroth dilution using the following specific test parameters:
Necessary organism dilutions via OD600 were calculated based on OD600 of 1.0 being equivalent to 8×10^8 CFU/mL. Biocide dilutions were performed in 2-fold increments for each assay.

Row | Structure (SMILES) | Fold Reduction of MIC over control without booster | fold lower MIC values | Fold Reduction of MIC over control without booster (Table 7, with 0.075% “1737-72”:AMP95 (1:1)) | Fold Reduction of MIC over control without booster (Table 7, with 0.15% “1737-72”:AMP95 (1:1)) | fold lower MIC values (biocide in combination with magnesium oxide version “1737-34”)
1 | [Na+].[O-][n+]1ccccc1[S-] [sodium pyrithione] | 64 fold | clearly antagonistic | – | – | –
2 | O=c1[nH]sc2ccccc12 [BIT, 1,2-benzisothiazolin-3-one] | – | – | 2 fold | 2 fold | 2 fold
